Entries after “also recorded” stand apart in the source; their conditions may differ. Like-named read-outs stand apart in the source and are kept apart here.
Legend:
ZR75-1 = assay: Caspase cascade activation assay (N-(Ac-DEVD)-N'-ethoxycarbonyl-R110 fluorogenic substrate) in ZR75-1 cells; format: cell-based, Human; conditions: for EC50 (nM) caspase potency / EC50: sigmoidal dose-response; for Caspase activity Ratio: ratio of net RFU of test compound to control, 0.16 to 10 μM final; for EC50: read-out: EC50 (nM) caspase potency
Description: (§1) Human breast cancer cell lines T47D and ZR75-1 were grown according to media component mixtures designated by American Type Culture Collection +10% FCS (Invitrogen Corporation, Life Technologies Division), in a 5% CO2 −95% humidity incubator at 37° C. T47D and ZR75-1 cells were maintained at a cell density between 30 and 80% confluency at a cell density of 0.1 to 0.6×10^6 cells/ml. Cells were harvested at 600xg and resuspended at 0.65×10^6 cells/ml into appropriate media +10% FCS. An aliquot of 45 μl of cells was added to a well of a 96-well microtiter plate containing 5 μl of a 10% DMSO in RPMI-1640 media solution containing 1.6 to 100 μM of N-(4-methoxy-2-nitrophenyl)-3-pyridinecarboxamide or other test compound (0.16 to 10 μM final). An aliquot of 45 μl of cells was added to a well of a 96-well microtiter plate containing 5 μl of a 10% DMSO in RPMI-1640 media solution without test compound as the control sample. The samples were mixed by agitation and then incubated at 37 C. for 24 h in a 5% CO2 −95% humidity incubator. After incubation, the samples were removed from the incubator and 50 μl of a solution containing 20 μM of N-(Ac-DEVD)-N′-ethoxycarbonyl-R110 (SEQ ID NO: 1) fluorogenic substrate (Cytovia, Inc.; WO99/18856), 20% sucrose (Sigma), 20 mM DTT (Sigma), 200 mM NaCl (Sigma), 40 mM Na PIPES buffer pH 7.2 (Sigma), and 500 μg/ml lysolecithin (Calbiochem) was added. The samples were mixed by agitation and incubated at room temperature. Using a fluorescent plate reader (Model 1420 Wallac Instruments), an initial reading (T=0) was made approximately 1-2 min after addition of the substrate solution, employing excitation at 485 nm and emission at 530 nm, to determine the background fluorescence of the control sample. After the 3 h incubation, the samples were read for fluorescence as above (T=3 h).
(§2) The Relative Fluorescence Unit values (RFU) were used to calculate the sample readings as follows:
(§3) RFU(T=3h)−Control RFU(T=0)=Net RFU(T=3h).
(§4) The activity of caspase cascade activation was determined by the ratio of the net RFU value for N-(4-methoxy-2-nitrophenyl)-3-pyridinecarboxamide or other test compound to that of control samples. The EC50 (nM) was determined by a sigmoidal dose-response calculation (Prism 2.0, GraphPad Software Inc.).

T47D [1] = assay: Caspase cascade activation assay (N-(Ac-DEVD)-N'-ethoxycarbonyl-R110 fluorogenic substrate) in T47D cells; format: cell-based, Human; conditions: 24 h incubation; for EC50 (nM) caspase potency / EC50: sigmoidal dose-response; for Caspase activity Ratio: ratio of net RFU of test compound to control, 0.16 to 10 μM final; for EC50: read-out: EC50 (nM) caspase potency
Description: as §1, §2, §3, §4

Jurkat cells [2] = assay: Nuclear fragmentation in Jurkat cells (Syto16 staining); format: cell-based; conditions: 5 μM, 24 h, Syto16 stain
Description: The ability of N-(4-methoxy-2-nitrophenyl)-3-pyridinecarboxamide to induce nuclear fragmentation was tested by treatment of Jurkat cells with the test compound followed by staining of the nucleus with Sytol6, a fluorescent DNA dye (Molecular Probes, Eugene, Oreg.). The nuclei of Jurkat cells treated with vehicle control (DMSO) are seen to be round with dispersed chromatin that is moderately stained with Sytol6 (FIG. 1A).

Jurkat cells [3] = assay: Mitotic arrest in Jurkat cells (mitotic figures counted); format: cell-based; conditions: 0.02 μM to 5 μM, 6 h
Description: Jurkat cells were incubated with a range of concentrations of N-(4-methoxy-2-nitrophenyl)-3-pyridinecarboxamide (0.02 μM to 5 μM) for 6 h under normal growth conditions; control cultures were treated with DMSO vehicle. The cells were then treated for 20 min. with 800 nM Syto 16 (Molecular Probes, Eugene, OR). Cytospin preparations were then prepared and the samples were viewed by fluorescent microscopy using a fluorescein filter set. For each concentration of test compound, the number of mitotic figures were counted and expressed as a percentage of the total number of cells. Three fields from each condition were evaluated and the mean and SEM were calculated and plotted as a function of drug concentration (FIG. 2).

T47D [4] = assay: Cell cycle arrest and apoptosis in T47D cells (propidium iodide flow cytometry); format: cell-based, Human; conditions: 10 μM, 48 h
Description: T47D, a breast cancer cell line, was maintained and harvested as described in Example 71. […] As a control, cells were also incubated with equivalent amount of solvent as control (DMSO). Cells were harvested at 1,200 rpm and washed twice with 5 mM EDTA/PBS. Cells were then resuspended in 300 μl EDTA/PBS and 700 μl of 100% ethanol, vortexed and incubated at room temperature for 1 h. Samples were spun down at 1,200 rpm for 5 min and the supernatant was removed. A solution containing 100 μg/ml of propidium iodide and 1 mg/ml of RNAse A (fresh) was added to the samples and incubated for 1 h at room temperature. Samples were then transferred to 12×75 mm polystyrene tubes and analyzed on a flow cytometer. All flow cytometry analyses were performed on FACScalibur (Becton Dickinson) using Cell Quest analysis software. On the x-axis is plotted the fluorescence intensity and on the y-axis is plotted the number of cells with that fluorescence intensity. […] An increase in the sub-diploid DNA content of cells (marker M1 region, FIG. 3) is also seen to increase from 2% to 25% with compound treatment. The sub-diploid amount of DNA (M1) is indicative of apoptotic cells which have undergone DNA degradation or fragmentation.

[5] = Homo sapiens, ZR-75-1, 24 h incubation

Structure (SMILES) | EC50 (nM) caspase potency (ZR75-1; 24 h incubation) | Caspase activity Ratio (ZR75-1; 24 h incubation) | EC50 (nM) caspase potency (T47D [1]) | Caspase activity Ratio (T47D [1]) | EC50 (ZR75-1; [5]) | EC50 (T47D [1]; Homo sapiens) | also measured
COc1ccc(NC(=O)c2ccc(Cl)nc2Cl)c([N+](=O)[O-])c1 [Example 15, 2,6-Dichloro-N-(4-methoxy-2-nitrophenyl)-3-pyridinecarboxamide] | Inactive | Inactive | Inactive | Inactive | – | – | –
COc1ccc(NC(=O)c2cccnc2Cl)c([N+](=O)[O-])c1 [Example 6, 2-Chloro-N-(4-methoxy-2-nitrophenyl)-3-pyridinecarboxamide] | Inactive | Inactive | Inactive | Inactive | – | – | –
COc1ccc(NC(=O)c2ccc(Cl)[n+]([O-])c2)c([N+](=O)[O-])c1 [Example 28, 6-Chloro-N-(4-methoxy-2-nitrophenyl)-1-N-oxide-3-pyridinecarboxamide] | – | 5.1 | – | 2.4 | – | – | EC50 (ZR75-1; 24 h incubation): 4510 nM; EC50 (T47D [1]): 7330 nM
COc1ccc(NC(=O)c2cccnc2)c([N+](=O)[O-])c1 [Example 29, N-(4-Methoxy-2-nitrophenyl)-3-pyridinecarboxamide] | – | 6.4 | – | 5.8 | 1000 nM | 1800 nM | Nuclear fragmentation (nuclear morphology) (Jurkat cells [2]): shrunken and fragmented nuclei; Mitotic arrest (Jurkat cells [3]): effective inducer of mitotic arrest; also recorded: increasing percent of mitotic arrest with increasing drug concentration; G1 (M2) cells (T47D [4]): a reduction in the G1(M2); G2/M DNA content (M4) cells (T47D [4]): increase in G2/M DNA content; also recorded: an increase in the G2/M (M4); sub-diploid DNA content of cells (M1), in words (T47D [4]): increase; sub-diploid DNA content of cells (M1) (T47D [4]; control 2%): 25%
COc1ccc(NC(=O)c2ccc(Cl)nc2)c(OC)c1 [Example 5, 6-Chloro-N-(2,4-dimethoxyphenyl)-3-pyridinecarboxamide] | Inactive | Inactive | Inactive | Inactive | – | – | –
COc1ccc(NC(=O)c2ccc(Cl)nc2)c([N+](=O)[O-])c1 [Example 7, 6-Chloro-N-(4-methoxy-2-nitrophenyl)-3-pyridinecarboxamide] | – | 2.7 | – | 8.1 | 230 nM | 593 nM | –
CCOc1ccc(N(C)C(=O)c2ccc(Cl)nc2)c([N+](=O)[O-])c1 [Example 30, 6-Chloro-N-(4-ethoxy-2-nitrophenyl)-N-methyl-3-pyridinecarboxamide] | Inactive | Inactive | Inactive | Inactive | – | – | –
Cc1ccc(NC(=O)c2ccc(Cl)nc2)c([N+](=O)[O-])c1 [Example 9, 6-Chloro-N-(4-methyl-2-nitrophenyl)-3-pyridinecarboxamide] | – | 5.0 | – | 5.4 | 488 nM | 920 nM | –
O=C(Nc1ccc(OC(F)(F)F)cc1[N+](=O)[O-])c1ccc(Cl)nc1 [Example 23, 6-Chloro-N-(2-nitro-4-tifluoromethoxyphenyl)-3-pyridinecarboxamide] | – | 9.9 | – | 7.2 | – | – | EC50 (ZR75-1; 24 h incubation): 171 nM; EC50 (T47D [1]): 608 nM
COc1ccc(NC(=O)c2cnc(Cl)c(Cl)c2)c([N+](=O)[O-])c1 [Example 16, 5,6-Dichloro-N-(4-methoxy-2-nitrophenyl)-3-pyridinecarboxamide] | Inactive | Inactive | Inactive | Inactive | – | – | –
COc1ccc(NC(=O)c2cnc(Cl)nc2C(F)(F)F)c([N+](=O)[O-])c1 [Example 13, 2-Chloro-4trifluoromethyl-N-(4methoxy-2-nitrophenyl)-5-pyrimidinecarboxamide] | Inactive | Inactive | Inactive | Inactive | – | – | –
COc1cc([N+](=O)[O-])c(NC(=O)c2ccc(Cl)nc2)cc1Br [Example 4, 6-Chloro-N-(3-bromo-4-methoxy-6-nitrophenyl)-3-pyridinecarboxamide] | – | 3.2 | Inactive | Inactive | 4030 nM | – | –
O=C(Nc1ccc(C(=O)c2ccccc2)cc1[N+](=O)[O-])c1ccc(Cl)nc1 [Example 24, 6-Chloro-N-(4-benzoyl-2-nitrophenyl)-3-pyridinecarboxamide] | Inactive | Inactive | Inactive | Inactive | – | – | –
O=C(Nc1ccc(OCc2ccccc2)cc1[N+](=O)[O-])c1ccc(Cl)nc1 [Example 25, 6-Chloro-N-(4-benzyloxy-2-nitrophenyl)-3-pyridinecarboxamide] | – | 6.6 | – | 5.8 | 133 nM | 345 nM | –
CCOc1ccc(NC(=O)c2ccc(C)nc2)c([N+](=O)[O-])c1 [Example 26, 6-Methyl-N-(4-ethoxy-2-nitrophenyl)-3-pyridinecarboxamide] | – | 3.2 | – | 5.5 | 20 nM | 42 nM | –
COc1ccc(NC(=O)c2cc(Cl)nc(Cl)c2)c([N+](=O)[O-])c1 [Example 12, 2,6-Dichloro-N-(4-methoxy-2-nitrophenyl)-4-pyridinecarboxamide] | Inactive | Inactive | Inactive | Inactive | – | – | –
